Like-named read-outs stand apart in the source and are kept apart here.
Molecular target: T1, MMP-9 (Homo sapiens, UniProt P14780)
T1 construct: made in house; host or cells: MMP-9-transfected HT1080 cells (spent media)
Experiment: In vitro MMP inhibition, IC50 determination (fluorogenic substrate I)
Type: biochemical
Details: read-out: MMP-9 (IC-50)

T1 sequence (P14780 107-707 limits assumed): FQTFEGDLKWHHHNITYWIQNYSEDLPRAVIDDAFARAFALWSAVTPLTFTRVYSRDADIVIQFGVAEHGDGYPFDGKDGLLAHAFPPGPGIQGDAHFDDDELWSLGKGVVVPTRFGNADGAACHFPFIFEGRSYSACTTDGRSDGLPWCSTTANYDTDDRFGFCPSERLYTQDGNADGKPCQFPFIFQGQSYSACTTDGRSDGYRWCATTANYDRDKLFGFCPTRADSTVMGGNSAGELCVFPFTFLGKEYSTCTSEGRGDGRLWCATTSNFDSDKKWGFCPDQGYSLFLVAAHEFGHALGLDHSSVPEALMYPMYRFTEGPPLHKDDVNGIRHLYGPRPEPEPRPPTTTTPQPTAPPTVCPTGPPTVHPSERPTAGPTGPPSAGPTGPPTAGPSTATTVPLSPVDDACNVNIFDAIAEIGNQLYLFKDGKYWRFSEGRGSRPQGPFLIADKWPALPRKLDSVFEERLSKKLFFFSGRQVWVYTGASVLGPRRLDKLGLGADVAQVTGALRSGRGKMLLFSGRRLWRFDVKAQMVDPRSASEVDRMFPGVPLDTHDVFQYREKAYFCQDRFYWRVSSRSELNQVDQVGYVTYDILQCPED

| IC50 (value in parenthesis) [nM] | IC50 (value in parentheses) [nM] | SMILES |
| --- | --- | --- |
| 3.39 | – | CCOCCCc1ccc(N2CCN(S(=O)(=O)C3(C(=O)NO)CCN(CCOC)CC3)CC2)cc1 [Example 179] |
| 2.25 | – | COCCCc1ccc(N2CCN(S(=O)(=O)C3(C(=O)NO)CCN(CCOC)CC3)CC2)cc1 [Example 180] |
| 1.72 | – | COCCN1CCC(C(=O)NO)(S(=O)(=O)N2CCN(c3ccc(CCC4CCCC4)cc3)CC2)CC1 [Example 182] |
| 1.67 | – | COCCN1CCC(C(=O)NO)(S(=O)(=O)N2CCN(c3ccc(CC4CCC4)cc3)CC2)CC1 [Example 183] |
| 55.8 | – | COCCN1CCC(C(=O)NO)(S(=O)(=O)N2CCN(c3ccc(C#N)cc3)CC2)CC1 [Example 186] |
| 33.7 | – | CCC(CC)Cc1ccc(N2CCN(S(=O)(=O)C3(C(=O)NO)CCN(CCOC)CC3)CC2)cc1 [Example 188] |

More lines, now with the values behind:

| SMILES | IC50 (value in parenthesis) [nM] | IC50 (value in parentheses) [nM] |
| --- | --- | --- |
| COCCN1CCC(C(=O)NO)(S(=O)(=O)N2CCN(c3ccc(CC4CCCCC4)cc3)CC2)CC1 [Example 181] | 45.6 | – |
| CCOc1ccc(N2CCN(S(=O)(=O)C3(C(=O)NO)CCN(CCOC)CC3)CC2)cc1F [Example 184] | 2.79 | – |
| CCCOc1ccc(N2CCN(S(=O)(=O)C3(C(=O)NO)CCN(CCOC)CC3)CC2)cc1F [Example 185] | 1.19 | – |
| CCc1cnc(N2CCN(S(=O)(=O)C3(C(=O)NO)CCN(CCOC)CC3)CC2)nc1 [Example 187] | 155 | – |
| CCCCOc1ccc(N2CCN(S(=O)(=O)C3(C(=O)NO)CCN(C(=O)CCC)CC3)CC2)cc1 [Example 290] | – | 1.42 |
